One series has as its target T1, serotonin transporter (Rattus norvegicus, UniProt P31652).
T1 construct: displace ^3H-paroxetine from male rat frontal cortical membranes; from tissue; host or cells: male rat frontal cortex membranes
Description: 3H-paroxetine displacement, serotonin transporter affinity. The series is classed as binding.

In the next series the target is T2, human 5-HT1A receptors (Homo sapiens, UniProt P08908).
T2 construct: expressed in transfected cells; host or cells: CHO cells
T2 sequence (P08908 1-422): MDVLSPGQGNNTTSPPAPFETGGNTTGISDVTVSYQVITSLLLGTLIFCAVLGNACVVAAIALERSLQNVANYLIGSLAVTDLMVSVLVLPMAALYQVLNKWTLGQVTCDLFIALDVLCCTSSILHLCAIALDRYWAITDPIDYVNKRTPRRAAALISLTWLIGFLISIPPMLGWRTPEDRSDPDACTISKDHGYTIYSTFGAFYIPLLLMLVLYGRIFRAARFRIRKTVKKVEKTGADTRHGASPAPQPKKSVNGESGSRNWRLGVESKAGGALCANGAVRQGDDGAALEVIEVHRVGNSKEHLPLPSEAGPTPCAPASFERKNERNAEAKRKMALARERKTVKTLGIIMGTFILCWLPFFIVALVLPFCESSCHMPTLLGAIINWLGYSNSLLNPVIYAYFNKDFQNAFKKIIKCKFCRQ
Description: [3H] 8-OHDPAT displacement, 5-HT1A receptor affinity. The series is classed as binding. An excerpt:
High affinity for the serotonin 5-HT1A receptor was established by testing the claimed compound's ability to displace [^3H] 8-OHDPAT (dipropylaminotetralin) from the 5-HT1A serotonin receptor following a modification of the procedure of Hall et al., J. Neurochem. 44, 1685 (1985) which utilizes CHO cells stably transfected with human 5-HT1A receptors.

In series [1] the target is T3, cloned human 5-HT1A receptors (Homo sapiens, UniProt P08908).
T3 construct: expressed in transfected cells
T3 sequence (P08908 1-422): T2 sequence (P08908 1-422)
Description: 35S-GTPγS binding assay, 5-HT1A antagonist activity. The class given is biochemical. The protocol:
Antagonist activity at 5-HT1A receptors was established by using a ^35S-GTPγS binding assay similar to that used by Lazareno and Birdsall (Br. J. Pharmacol. 109: 1120, 1993), in which the test compound's ability to affect the binding of ^35S-GTPγS to membranes containing cloned human 5-HT1A receptors was determined. Agonists produce an increase in binding whereas antagonists produce no increase but rather reverse the effects of the standard agonist 8-OHDPAT. The test compound's maximum inhibitory effect is represented as the Imax, while its potency is defined by the IC50.
In general terms: Binding of GTPγS marks nucleotide exchange on a G protein.

[2] abbreviates: 35S-GTPγS binding, reversal of the effects of the standard agonist 8-OHDPAT.
Setting [3] is: 35S-GTPγS binding, reversal of the effects of the standard agonist 8-OHDPAT, read-out: 5-HT1A Function IC50.

These results are taken from patent US6943178B2 (Wyeth, priority 2001, dated 2005).

Counter-ions that a name gives are not always drawn. Like-named read-outs stand apart in the source and are kept apart here.

T1 sequence (P31652 whole entry): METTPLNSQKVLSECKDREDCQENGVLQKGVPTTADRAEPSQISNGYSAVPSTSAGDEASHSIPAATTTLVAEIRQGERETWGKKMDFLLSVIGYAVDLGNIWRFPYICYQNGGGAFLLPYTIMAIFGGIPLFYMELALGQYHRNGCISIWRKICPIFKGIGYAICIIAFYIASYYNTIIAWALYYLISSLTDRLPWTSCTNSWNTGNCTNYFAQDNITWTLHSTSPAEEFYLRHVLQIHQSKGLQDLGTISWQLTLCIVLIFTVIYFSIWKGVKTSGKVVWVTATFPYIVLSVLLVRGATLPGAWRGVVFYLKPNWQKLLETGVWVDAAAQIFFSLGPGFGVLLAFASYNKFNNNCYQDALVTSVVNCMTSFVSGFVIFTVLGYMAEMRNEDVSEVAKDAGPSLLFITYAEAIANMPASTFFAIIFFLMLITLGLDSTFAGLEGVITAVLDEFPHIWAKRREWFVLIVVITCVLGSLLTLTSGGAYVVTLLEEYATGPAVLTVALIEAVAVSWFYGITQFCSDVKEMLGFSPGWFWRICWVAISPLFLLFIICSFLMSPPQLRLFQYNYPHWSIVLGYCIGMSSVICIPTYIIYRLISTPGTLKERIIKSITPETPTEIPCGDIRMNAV

As a reminder, the Ki is the dissociation constant of the complex between target and ligand, obtained from inhibition or displacement. Broadly, the IC50 is the concentration at which inhibition is half-maximal. With `C1=C(c2c[nH]c3ccccc23)CCN(CC2COc3ccc4c(c3O2)OCCC4)C1` (stereo not drawn) [Example 4, 3-{1-(2,3,8,9-Tetrahydro-7H-[1,4]dioxino[2,3-h]chromen-2-ylmethyl)-1,2,3,6-tetrahydropyridin-4-yl}-1H-indole], the figures for the Ki on serotonin transporter and at human 5-HT1A receptors were 0.9 nM and 44.1 nM, respectively. The “5-HT1A Function Imax (maximum inhibitory effect)” value in series [1] (setting [2]) is given as 87.0. In addition, in series [1] (setting [3]), the IC50 amounted to 0.38 nM.
One may read the melting point as the temperature of the solid-liquid transition. `C1=C(c2c[nH]c3ccccc23)CCN(CC2COc3ccc4c(c3O2)OCCC4)C1` (stereo not drawn) (as salt: oxalate) [Example 4, 3-{1-(2,3,8,9-Tetrahydro-7H-[1,4]dioxino[2,3-h]chromen-2-ylmethyl)-1,2,3,6-tetrahydropyridin-4-yl}-1H-indole] showed a melting point of 140 °C.
As for `Fc1ccc2[nH]cc(C3=CCN(CC4COc5ccc6c(c5O4)OCCC6)CC3)c2c1` (stereo not drawn) [Example 2, 5-Fluoro-3-[1,2,3,6-tetrahydro-1-[(2,3,8,9-tetrahydro-7H-pyrano[2,3-f][1,4]benzodioxin-2-yl)methyl]-4-pyridinyl]-1H-indole], the Ki on serotonin transporter turned out to be 2.57 nM; on human 5-HT1A receptors it was 27.6 nM. Besides, the “5-HT1A Function Imax (maximum inhibitory effect)” value in series [1] (setting [2]) was found to be 100. Also, the half-inhibitory concentration (IC50) in series [1] (setting [3]) amounted to 0.56 nM.
In turn, `O=c1ccoc2c3c(ccc12)OC(CN1CC=C(c2c[nH]c4ccc(F)cc24)CC1)CO3` (stereo not drawn) (as salt: fumarate) (hydrate or solvate) [Example 1, 3-[4-(5-Fluoro-1H-indol-3-yl)-3,6-dihydro-2H-pyridin-1-ylmethyl]-2,3-dihydro-7H-pyrano[2,3-f][1,4]benzodioxin-7-one] gave a melting point of 106 to 108 °C.
For `O=c1ccoc2c3c(ccc12)OC[C@H](CN1CC=C(c2c[nH]c4ccc(F)cc24)CC1)O3` [Example 1], the values for the Ki on serotonin transporter and at human 5-HT1A receptors were 2.69 nM and 119 nM, respectively. In addition, the IC50 in series [1] is 2.37 nM. Further, in series [1] (setting [2]), the “5-HT1A Function Imax (maximum inhibitory effect)” value is on record as 100.
`O=C1CCOc2c1ccc1c2OC(CN2CC=C(c3c[nH]c4ccccc34)CC2)CO1` (stereo not drawn) [Example 3, 3-[4-(1H-indol-3-yl)-3,6-dihydro-2H-pyridin-1-ylmethyl]-2,3,6,7-tetrahydro-1,4,5-trioxa-phenanthren-8-one] gave a melting point of 210 °C. This compound had a Ki on serotonin transporter of 2.74 nM. In addition, the Ki at human 5-HT1A receptors (displacement of [3H] 8-OHDPAT, CHO cells stably transfected with human 5-HT1A receptors, read-out: 5-HT1A Receptor Affinity KI) stood at 156 nM.
In turn, `Fc1ccc2[nH]cc(C3=CCN(CC4COc5ccc6c(c5O4)OCCC6)CC3)c2c1` (stereo not drawn) (as salt: oxalate) [Example 2, 5-Fluoro-3-[1,2,3,6-tetrahydro-1-[(2,3,8,9-tetrahydro-7H-pyrano[2,3-f][1,4]benzodioxin-2-yl)methyl]-4-pyridinyl]-1H-indole] came in with a melting point of 146 to 148 °C.
